# Data as given in ChEMBL document CHEMBL1201862, “PubChem BioAssay data set” (2004).
#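 Following 48 hours of exposure in 96-well plates, responses at five concentrations were used to interpolate endpoints linearly. At the GI50, growth is halved.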 Active and inactive are the calls of the source. No stated cut-off is given here; in the data, active = GI50 up to about 1.1 µM and inactive = higher.
# Assays:
# Assay in all cases: inhibition of tumour cell growth, NCI panel, 48 h
# [1] = test system: 786-0
# [2] = test system: A549
# [3] = test system: ACHN
# [4] = test system: CCRF-CEM
# [5] = test system: COLO 205
# [6] = test system: DMS-114
# [7] = test system: DMS-273
# [8] = test system: EKVX
# [9] = test system: HCT-116
# [10] = test system: HCT-15
# [11] = test system: HL-60
# [12] = test system: HOP-18
# [13] = test system: HOP-62
# [14] = test system: HT-29
# [15] = test system: IGROV-1
# [16] = test system: K562
# [17] = test system: KM12
# [18] = test system: LOX IMVI
# [19] = test system: M14
# [20] = test system: M19-MEL
# [21] = test system: MOLT-4
# [22] = test system: Malme-3M
# [23] = test system: NCI-H226
# [24] = test system: NCI-H23
# [25] = test system: NCI-H460
# [26] = test system: NCI-H522
# [27] = test system: OVCAR-3
# [28] = test system: OVCAR-8
# [29] = test system: RPMI-8226
# [30] = test system: RXF 393
# [31] = test system: SF-295
# [32] = test system: SF-539
# [33] = test system: SK-MEL-28
# [34] = test system: SK-MEL-2
# [35] = test system: SK-MEL-5
# [36] = test system: SK-OV-3
# [37] = test system: SN12C
# [38] = test system: SNB-19
# [39] = test system: SNB-75
# [40] = test system: SW-620
# [41] = test system: TK-10
# [42] = test system: U-251
# [43] = test system: UACC-257
# [44] = test system: UACC-62
# [45] = test system: UO-31
# [46] = test system: XF498
# [47] = test system: A498
# [48] = test system: CAKI-1
# [49] = test system: DLD-1
# [50] = test system: HCC 2998
# [51] = test system: HOP-92
# [52] = test system: KM-20L2
# [53] = test system: LXFL 529
# [54] = test system: OVCAR-4
# [55] = test system: OVCAR-5
# [56] = test system: SF-268
# [57] = test system: SNB-78
# [58] = test system: SR
structure (smiles),measurement,setting,value
CC(=O)NS(=O)(=O)c1ccc(NC(=O)COC(=O)c2cccc3c(=O)c4ccccc4[nH]c23)cc1,GI50,[1],> 100 µM (inactive)
same,GI50,[2],> 100 µM (inactive)
same,GI50,[3],> 100 µM (inactive)
same,GI50,[4],> 100 µM (inactive)
same,GI50,[5],> 100 µM (inactive)
same,GI50,[6],> 100 µM (inactive)
same,GI50,[7],> 100 µM (inactive)
same,GI50,[8],> 100 µM (inactive)
same,GI50,[9],> 100 µM (inactive)
same,GI50,[10],> 100 µM
same,GI50,[11],> 100 µM (inactive)
same,GI50,[12],> 100 µM (inactive)
same,GI50,[13],> 100 µM (inactive)
same,GI50,[14],> 100 µM (inactive)
same,GI50,[15],> 100 µM (inactive)
same,GI50,[16],> 100 µM (inactive)
same,GI50,[17],> 100 µM (inactive)
same,GI50,[18],> 100 µM (inactive)
same,GI50,[19],> 100 µM (inactive)
same,GI50,[20],> 100 µM (inactive)
same,GI50,[21],> 100 µM (inactive)
same,GI50,[22],> 100 µM (inactive)
same,GI50,[23],> 100 µM (inactive)
same,GI50,[24],> 100 µM (inactive)
same,GI50,[25],> 100 µM (inactive)
same,GI50,[26],> 100 µM (inactive)
same,GI50,[27],92.5 µM (inactive)
same,GI50,[28],> 100 µM (inactive)
same,GI50,[29],> 100 µM (inactive)
same,GI50,[30],> 100 µM (inactive)
same,GI50,[31],> 100 µM (inactive)
same,GI50,[32],> 100 µM (inactive)
same,GI50,[33],> 100 µM (inactive)
same,GI50,[34],> 100 µM (inactive)
same,GI50,[35],> 100 µM (inactive)
same,GI50,[36],> 100 µM (inactive)
same,GI50,[37],> 100 µM (inactive)
same,GI50,[38],> 100 µM (inactive)
same,GI50,[39],> 100 µM (inactive)
same,GI50,[40],> 100 µM (inactive)
same,GI50,[41],> 100 µM (inactive)
same,GI50,[42],> 100 µM (inactive)
same,GI50,[43],> 100 µM (inactive)
same,GI50,[44],> 100 µM (inactive)
same,GI50,[45],> 100 µM (inactive)
same,GI50,[46],> 100 µM (inactive)
CCN(CC)CCOc1ccc(C(O)(Cc2ccc(OC)cc2)c2ccccc2)cc1 (stereo not drawn),GI50,[1],17.3 µM (inactive)
same,GI50,[47],18.1 µM (inactive)
same,GI50,[2],21.8 µM (inactive)
same,GI50,[3],27.5 µM (inactive)
same,GI50,[48],21.7 µM (inactive)
same,GI50,[4],17.6 µM (inactive)
same,GI50,[5],12 µM (inactive)
same,GI50,[49],18.3 µM (inactive)
same,GI50,[6],14.9 µM (inactive)
same,GI50,[7],14.3 µM (inactive)
same,GI50,[8],26.9 µM (inactive)
same,GI50,[50],14 µM (inactive)
same,GI50,[9],13.8 µM (inactive)
same,GI50,[10],19.1 µM
same,GI50,[11],7.52 µM (inactive)
same,GI50,[13],15.9 µM (inactive)
same,GI50,[51],14.7 µM (inactive)
same,GI50,[14],3.83 µM (inactive)
same,GI50,[15],32.6 µM (inactive)
same,GI50,[16],4.39 µM (inactive)
same,GI50,[52],3.24 µM (inactive)
same,GI50,[17],17.3 µM (inactive)
same,GI50,[18],14.3 µM (inactive)
same,GI50,[53],17 µM (inactive)
same,GI50,[19],14.3 µM (inactive)
same,GI50,[20],15.4 µM (inactive)
same,GI50,[21],14.4 µM (inactive)
same,GI50,[22],18.5 µM (inactive)
same,GI50,[23],26.4 µM (inactive)
same,GI50,[24],17 µM (inactive)
same,GI50,[25],22.2 µM (inactive)
same,GI50,[26],20.5 µM (inactive)
same,GI50,[27],34.1 µM (inactive)
same,GI50,[54],16.1 µM (inactive)
same,GI50,[55],20 µM (inactive)
same,GI50,[28],33.6 µM (inactive)
same,GI50,[29],13.4 µM (inactive)
same,GI50,[30],13.1 µM (inactive)
same,GI50,[56],21.5 µM (inactive)
same,GI50,[31],17.7 µM (inactive)
same,GI50,[32],12.4 µM (inactive)
same,GI50,[33],13.9 µM (inactive)
same,GI50,[34],14.9 µM (inactive)
same,GI50,[35],13.2 µM (inactive)
same,GI50,[36],23.6 µM (inactive)
same,GI50,[37],27.9 µM (inactive)
same,GI50,[38],24.6 µM (inactive)
same,GI50,[39],12.6 µM (inactive)
same,GI50,[57],24.5 µM (inactive)
same,GI50,[58],10.7 µM (inactive)
same,GI50,[40],17.2 µM (inactive)
same,GI50,[41],28.7 µM (inactive)
same,GI50,[42],16.2 µM (inactive)
same,GI50,[43],15.7 µM (inactive)
same,GI50,[44],16.7 µM (inactive)
same,GI50,[45],22 µM (inactive)
same,GI50,[46],14 µM (inactive)
